Measurements published in patent US10214542B2, “Modified macrocyclic compounds” (BAYER PHARMA AKTIENGESELLSCHAFT, priority 2015, dated 2019).

Columns and labels:
CDK2/CycE = target: T1, CDK2/CycE (Homo sapiens, UniProt P24941); experiment: CDK2/CycE kinase assay (TR-FRET, Method 2a); assay type: biochemical; conditions: 10 μM ATP
T1 construct: GST; purchased ProQinase GmbH (Freiburg, Germany); host or cells: insect cells (Sf9)
Description: 2a. CDK2/CycE Kinase Assay:
CDK2/CycE-inhibitory activity of compounds of the present invention was quantified employing the CDK2/CycE TR-FRET assay as described in the following paragraphs:
Recombinant fusion proteins of GST and human CDK2 and of GST and human CycE, expressed in insect cells (Sf9) and purified by Glutathion-Sepharose affinity chromatography, were purchased from ProQinase GmbH (Freiburg, Germany). As substrate for the kinase reaction biotinylated peptide biotin-Ttds-YISPLKSPYKISEG (C-terminus in amid form) was used which can be purchased e.g. from the company JERINI Peptide Technologies (Berlin, Germany).
(§1) For the assay 50 nl of a 100 fold concentrated solution of the test compound in DMSO was pipetted into a black low volume 384 well microtiter plate (Greiner Bio-One, Frickenhausen, Germany), 2 μl of a solution of CDK2/CycE in aqueous assay buffer [50 mM Tris/HCl pH 8.0, 10 mM MgCl2, 1.0 mM dithiothreitol, 0.1 mM sodium ortho-vanadate, 0.01% (v/v) Nonidet-P40 (Sigma)] were added and the mixture was incubated for 15 min at 22° C. to allow pre-binding of the test compounds to the enzyme before the start of the kinase reaction. […] The concentration of CDK2/CycE was adjusted depending of the activity of the enzyme lot and was chosen appropriate to have the assay in the linear range, typical concentrations were in the range of 130 ng/mL. The reaction was stopped by the addition of 5 μl of a solution of TR-FRET detection reagents (0.2 μM streptavidine-XL665 [Cisbio Bioassays, Codolet, France] and 1 nM anti-RB(pSer807/pSer811)-antibody from BD Pharmingen [#558389] and 1.2 nM LANCE EU-W1024 labeled anti-mouse IgG antibody [Perkin-Elmer, product no. AD0077]) in an aqueous EDTA-solution (100 mM EDTA, 0.2% (w/v) bovine serum albumin in 100 mM HEPES pH 7.5).
(§2) The resulting mixture was incubated 1 h at 22° C. to allow the formation of complex between the phosphorylated biotinylated peptide and the detection reagents. Subsequently the amount of phosphorylated substrate was evaluated by measurement of the resonance energy transfer from the Eu-chelate to the streptavidine-XL. Therefore, the fluorescence emissions at 620 nm and 665 nm after excitation at 350 nm was measured in a TR-FRET reader, e.g. a Rubystar (BMG Labtechnologies, Offenburg, Germany) or a Viewlux (Perkin-Elmer). The ratio of the emissions at 665 nm and at […] was taken as the measure for the amount of phosphorylated substrate. The data were normalised (enzyme reaction without inhibitor=0% inhibition, all other assay components but no enzym=100% inhibition).

CDK9/CycT1 = target: T2, CDK9/CycT1 (Homo sapiens, UniProt P50750); experiment: CDK9/CycT1 high ATP kinase assay (TR-FRET, Method 1b); assay type: biochemical; conditions: 2 mM ATP; for IC50: Method 1b; for Selectivity high ATP CDK9 over high ATP CDK2: IC50 (high ATP CDK2)/IC50 (high ATP CDK9): Methods 1b and 2b
T2 construct: Recombinant full-length His-tagged human CDK9 and CycT1; His; purchased Invitrogen PV4131; host or cells: insect cells
T2 sequence (P50750 whole entry): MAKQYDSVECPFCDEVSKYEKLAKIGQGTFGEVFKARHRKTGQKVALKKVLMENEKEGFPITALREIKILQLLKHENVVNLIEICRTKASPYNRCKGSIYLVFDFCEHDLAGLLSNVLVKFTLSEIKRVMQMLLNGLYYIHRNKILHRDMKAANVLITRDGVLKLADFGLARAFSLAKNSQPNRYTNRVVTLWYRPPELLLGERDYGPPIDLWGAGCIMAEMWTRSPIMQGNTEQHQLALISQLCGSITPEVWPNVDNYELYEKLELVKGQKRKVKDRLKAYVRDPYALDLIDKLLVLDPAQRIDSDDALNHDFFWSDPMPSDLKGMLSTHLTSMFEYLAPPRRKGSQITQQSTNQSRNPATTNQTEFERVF
T2 sequence (O60563 whole entry partner): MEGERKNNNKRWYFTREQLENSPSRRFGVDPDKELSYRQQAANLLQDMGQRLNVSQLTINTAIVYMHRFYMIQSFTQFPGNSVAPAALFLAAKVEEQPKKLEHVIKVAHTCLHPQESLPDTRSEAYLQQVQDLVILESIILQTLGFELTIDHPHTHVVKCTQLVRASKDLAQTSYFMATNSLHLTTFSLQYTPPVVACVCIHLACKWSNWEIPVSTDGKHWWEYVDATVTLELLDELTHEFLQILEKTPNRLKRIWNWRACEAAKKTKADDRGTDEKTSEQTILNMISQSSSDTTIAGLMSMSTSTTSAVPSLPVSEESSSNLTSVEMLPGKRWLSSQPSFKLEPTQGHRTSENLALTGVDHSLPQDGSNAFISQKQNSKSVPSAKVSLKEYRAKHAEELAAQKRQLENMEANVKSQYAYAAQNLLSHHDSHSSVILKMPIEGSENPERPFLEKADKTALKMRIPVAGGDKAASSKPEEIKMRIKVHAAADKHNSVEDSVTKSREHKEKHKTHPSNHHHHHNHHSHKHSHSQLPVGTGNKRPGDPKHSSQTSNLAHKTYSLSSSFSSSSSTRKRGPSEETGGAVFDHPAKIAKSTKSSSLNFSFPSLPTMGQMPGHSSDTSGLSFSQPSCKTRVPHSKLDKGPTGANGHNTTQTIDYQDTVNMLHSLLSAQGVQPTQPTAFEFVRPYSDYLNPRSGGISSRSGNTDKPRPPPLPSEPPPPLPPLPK
Protocol: 1b. CDK9/CycT1 High ATP Kinase Assay
CDK9/CycT1-inhibitory activity of compounds of the present invention at a high ATP concentration after preincubation of enzyme and test compounds was quantified employing the CDK9/CycT1 TR-FRET assay as described in the following paragraphs.
Recombinant full-length His-tagged human CDK9 and CycT1, expressed in insect cells and purified by Ni-NTA affinity chromatography, were purchase from Invitrogen (Cat. No PV4131). As substrate for the kinase reaction biotinylated peptide biotin-Ttds-YISPLKSPYKISEG (C-terminus in amid form) was used which can be purchased e.g. from the company JERINI peptide technologies (Berlin, Germany).
as §1, with “CDK9/CycT1” for “CDK2/CycE”, “0.5 μg/mL.” for “130 ng/mL.”
as §2, with “HTRF” for “TR-FRET”

Row | IC50 (CDK2/CycE) [nM] | IC50 (CDK9/CycT1) [nM] | Selectivity high ATP CDK9 over high ATP CDK2: IC50 (high ATP CDK2)/IC50 (high ATP CDK9) (CDK9/CycT1) | SMILES
1 | 30 | 1.5 | 151 | CS(=N)(=O)Cc1cc2cc(c1)OCCCCNc1cc(F)ccc1-c1nc(ncc1F)N2 (racemic) [Example 16, (rac)-16,20-difluoro-9-[(S-methylsulfonimidoyl)methyl]-2,3,4,5-tetrahydro-1H-17,13-(azeno)-7,11-(metheno)-6,1,12,14-benzoxatriazacyclononadecine]
2 | 74 | 2.2 | 283 | CN1CCCCNc2cc(F)ccc2-c2nc(ncc2F)Nc2cc(CS(C)(=N)=O)cc1c2.O=CO (racemic) [Example 17, (rac)-16,20-difluoro-6-methyl-9-[(S-methylsulfonimidoyl)methyl]-1,2,3,4,5,6-hexahydro-12H-17,13-(azeno)-11,7-(metheno)-1,6,12,14-benzotetraazacyclononadecine; salt with formic acid]
3 | 371 | 17 | 82.9 | C[S+]([O-])Cc1cc2nc(c1)OCCCCCc1cc(F)ccc1-c1cc(ncc1F)N2 (racemic) [Example 19, (rac)-2,19-difluoro-9-[(methylsulfinyl)methyl]-14,15,16,17-tetrahydro-6H,13H-7,11-(azeno)-5,1-(metheno)-12,4,6-benzoxadiazacyclononadecine]
4 | 162 | 5.2 | 177 | CS(=N)(=O)Cc1cc2nc(c1)OCCCCCc1cc(F)ccc1-c1cc(ncc1F)N2 (racemic) [Example 20, (rac)-2,19-difluoro-9-[(S-methylsulfonimidoyl)methyl]-14,15,16,17-tetrahydro-6H,13H-7,11-(azeno)-5,1-(metheno)-12,4,6-benzoxadiazacyclononadecine]
5 | 104 | 2.1 | 629 | CN1CCCCOc2cc(F)ccc2-c2nc(ncc2F)Nc2cc(CS(C)(=N)=O)cc1c2 (racemic) [Example 23, (rac)-16,20-difluoro-6-methyl-9-[(S-methylsulfonimidoyl)methyl]-3,4,5,6-tetrahydro-2H,12H-13,17-(azeno)-11,7-(metheno)-1,6,12,14-benzoxatriazacyclononadecine]
6 | 2570 | 44 | >454 | CC(C)(C)OC(=O)N=S(C)(=O)Cc1cc2cc(c1)Nc1ncc(F)c(n1)-c1ccc(F)cc1OCCCCN2 (racemic) [Example 24, (rac)-tert-butyl[{[16,20-difluoro-3,4,5,6-tetrahydro-2H,12H-13,17-(azeno)-11,7-(metheno)-1,6,12,14-benzoxatriazacyclononadecin-9-yl]methyl}(methyl)oxido-λ^6-sulfanylidene]carbamate]
7 | 81.5 | 3.8 | 140 | CSCc1cc2nc(c1)Nc1cc(c(F)cn1)-c1ccc(F)cc1OCCCN2 [Example 1, 15,19-Difluoro-8-[(methylsulfanyl)methyl]-2,3,4,5-tetrahydro-11H-10,6-(azeno)-12,16-(metheno)-1,5,11,13-benzoxatriazacyclooctadecine]
8 | > 20000 | 323 | >61.9 | CSCc1cc2nc(c1)OCCCCc1cc(F)ccc1-c1cc(ncc1F)N2 [Example 4, 2,18-Difluoro-9-[(methylsulfanyl)methyl]-13,14,15,16-tetrahydro-6H-7,11-(azeno)-5,1-(metheno)-12,4,6-benzoxadiazacyclooctadecine]
9 | 27 | 10 | – | CSCc1cc2nc(c1F)N(C)CCCCOc1cc(F)ccc1-c1cc(ncc1F)N2 [Example 12, 8,16,20-trifluoro-6-methyl-9-[(methylsulfanyl)methyl]-3,4,5,6-tetrahydro-2H,12H-11,7-(azeno)-13,17-(metheno)-1,6,12,14-benzoxatriazacyclononadecine]
10 | 2560 | 246 | >81.3 | CSCc1cc2nc(c1)OCCCCCc1cc(F)ccc1-c1cc(ncc1F)N2 [Example 18, 2,19-difluoro-9-[(methylsulfanyl)methyl]-14,15,16,17-tetrahydro-6H,13H-7,11-(azeno)-5,1-(metheno)-12,4,6-benzoxadiazacyclononadecine]
